In US20260097049A1, “C[…] AND METHODS OF USE FOR TREATMENT AND PREVENTION OF CANCER” (BlackStone Therapeutics, LLC, priority 2022, published 2026):
Several values for one entry are separate records, joined by “and”; a condition that tells them apart may be missing. Equal values may be shown once. Read-outs that look alike come from different tables or passages of the source.

Columns and labels:
[1] = test system: A549 Lung Carcinoma Epithelial Cells (CCL-185 from ATCC); assay: Percent viability of lung carcinoma cells; assay type: cell-based; conditions: Homo sapiens, A549, read-out: Percent viability of cells, Mean (%)
Description: GR-X1=H4CBDV, GR-X2=(R)-H4CBD, GR-X3=(S)-H4CBD, GR-X4=HHC.
The IC50 of the hydrogenated cannabivarin, hexahydrocannabidivarin (H4CBDV), (R)-H4CBD, (S)-H4CBD, HHC racemic mixture, and gemcitabine, paclitaxel, and 5-fluorouracil were determined in lung carcinoma cells (A549 Lung Carcinoma Epithelial Cells (CCL-185 from ATCC)) as shown in FIGS. 39-43 and Table 3.

PANC-1 = assay: CellTiterGlo cell viability, PANC-1 cells; assay type: cell-based; conditions: Homo sapiens, 72 h
Description: (§1) The IC50 values for (R)-H4CBD, (S)-H4CBD, H4CBDV racemic mixture, and bortezomib were determined. Compound treatment of cells started one day after seeding with a final DMSO concentration of 0.1% and was performed by nanodrop-dispensing using a Tecan Dispenser. 0.1% DMSO (solvent) and Staurosporine (1,0E-05M) served as high control (100% viability) and low control (0% viability), respectively. For the assays, cells were seeded in white cell culture-treated flat and clear bottom multiwell plates and incubated at 37° C. overnight before compounds were added. After incubation for 72 h at 37° C. at 5% or 10% CO2 dependent on the medium, cell plates were equilibrated to room temperature for one hour, CellTiterGlo reagent (Promega) was added and luminescence was measured approximately an hour later using a luminometer.
(§2) Raw data were converted into percent cell viability relative to the high and low control, which were set to 100% and 0%, respectively. IC50 calculation was performed using GraphPad Prism software with a variable slope sigmoidal response fitting model using 0% viability as bottom constraint and 100% viability as top constraint. IC50 results in PANC-1, MIA-PaCa2, and AsPC-1 cells for (R)-H4CBD, (S)-H4CBD, H4CBDV racemic mixture, and bortezomib are shown in FIGS. 10-12 and Table 2

[2] = Pharmacokinetics in CD1 male mice (plasma, HPLC-MS); assay type: in vivo; conditions: for MRT inf: read-out: MRTInf—obs; for Vd: read-out: Vss—obs
Description: Formulation and dosing information for pharmacokinetic data is provided in Table 5 (CD=beta-cyclodextrin). The solutions were sonicated, vortexed, and slightly heated resulting in a clear purple liquid.
Pharmacokinetic data was produced by administering CD1 male mice with CCL-104 (H4CBD) or CCL-106 (H4CBDV). Each compound was formulated and administered as shown in Example 3. Plasma was sampled from the IV administered mice at 5 min, 15 min, 30 min, 1 hr, 2 hr, 4 hr post dose. Plasma was sampled from the PO administered mice at 15 min, 30 min, 1 hr, 2 hr, 4 hr, 6 hr post dose. The desired serial concentrations of working solutions were achieved by diluting stock solution of analyte with 50% acetonitrile in water solution. 10 μL of working solutions (0.5, 1, 2, 5, 10, 50, 100, 500, 1000 ng/mL) were added to 10 μL of the blank male CD1 mice plasma to achieve calibration standards of 0.5-1000 ng/mL (0.5, 1, 2, 5, 10, 50, 100, 500, 1000 ng/mL) in a total volume of 20 μL. Six quality control samples at 1 ng/mL, 2 ng/mL, 5 ng/mL, 10 ng/mL, 50 ng/mL and 800 ng/mL for plasma were prepared independently of those used for the calibration curves. These QC samples were prepared on the day of analysis in the same way as calibration standards. 20 μL standards, 20 μL QC samples and 20 μL unknown samples (10 μL plasma with 10 μL blank solution) were added to 200 μL of methanol containing IS mixture for precipitating protein respectively. Then the samples were vortexed for 30 seconds, then centrifuged at 4° C., 4,000 rpm for 15 min. The supernatant was diluted with water at a ratio of 1:2. 15 μL of the diluted supernatant was injected into the LC/MS/MS system for quantitative analysis.

MiaPaCA-2 = assay: CellTiterGlo cell viability, MiaPaCA-2 cells; assay type: cell-based; conditions: Homo sapiens, MIA PaCa-2, 72 h
Description: as §1, §2

[3] = Potential maximum tolerated dosages in mice; assay type: in vivo
Description: To determine potential maximum tolerated dosages, 3.12, 6.25, 10, and 12.5 mg/kg of CCL-106, for 2, 2, 1, and 1 doses respectively, were administered to mice. […] Mice were administered high doses of CCL-104 and CCL-106.

[4] = IV 10 mg/kg, individual mouse, 10 mg/kg
[5] = PO 10 mg/kg, individual mouse, 10 mg/kg
[6] = male, CD1, mouse, plasma, iv, 10 mg/kg, IV 10 mg/kg, Mean of 4 mice
[7] = male, CD1, mouse, plasma, iv, 10 mg/kg, IV 10 mg/kg, individual mouse
[8] = male, CD1, mouse, plasma, po, 10 mg/kg, PO 10 mg/kg, Mean of 4 mice
[9] = male, CD1, mouse, plasma, po, 10 mg/kg, PO 10 mg/kg, individual mouse

CCCc1cc(O)c(C2CC(C)CCC2C(C)C)c(O)c1 (racemic) [CCL-106, hexahydrocannabidivarin]
viability at 1.56 µM ([1]; agent concentration 1.56 uM): 92.1% | viability at 3.12 µM ([1]; agent concentration 3.12 uM): 95.2% | viability at 6.25 µM ([1]; agent concentration 6.25 uM): 93.4% | viability at 12.5 µM ([1]; agent concentration 12.5 uM): 93.6% | viability at 25 µM ([1]; agent concentration 25 uM): 21.5% | viability at 50 µM ([1]; agent concentration 50 uM): 5.65% | IC50 (PANC-1): 789 nM | AUClast/D (h*mg/mL) ([2]; IV 10 mg/kg, Mean of 4 mice): 184 h*ng/mL per mg/kg | AUC—% Extrap—obs ([2]; IV 10 mg/kg, Mean of 4 mice): 18.4% | Cl_obs ([2]; IV 10 mg/kg, Mean of 4 mice): 74.7 mL/min/kg | AUCInf [2, 4]: 2519 ng·h/mL and 2031 ng·h/mL and 2513 ng·h/mL | AUClast [2, 4]: 2047 ng·h/mL and 1630 ng·h/mL and 1952 ng·h/mL | AUC—% Extrap—obs [2, 4]: 12.7% and 18.7% and 19.8% and 22.3% | C0 [2, 4]: 4701 ng/mL and 5792 ng/mL and 5062 ng/mL | Cl_obs [2, 4]: 84.1 mL/min/kg and 66.2 mL/min/kg and 82.1 mL/min/kg and 66.3 mL/min/kg | MRTInf—obs [2, 4]: 2.11 h and 2.16 h and 2.49 h | T1/2 [2, 4]: 2.14 h and 2.50 h and 2.99 h | Vss—obs [2, 4]: 8.38 L/kg and 10.7 L/kg and 9.89 L/kg | AUClast/D (h*mg/mL) ([2]; PO 10 mg/kg, Mean of 4 mice): 31.6 h*ng/mL per mg/kg | AUC—% Extrap—obs ([2]; PO 10 mg/kg, Mean of 4 mice): 25.7% | AUCInf [2, 5]: 404 ng·h/mL and 453 ng·h/mL and 479 ng·h/mL | AUClast [2, 5]: 308 ng·h/mL and 414 ng·h/mL and 226 ng·h/mL | AUC—% Extrap—obs [2, 5]: 18.1% and 23.7% and 8.47% and 52.7% | Cmax [2, 5]: 233 ng/mL and 177 ng/mL and 352 ng/mL and 127 ng/mL | F (%) [2, 5]: 16.7% and 20.0% and 12.3% | MRTInf—obs [2, 5]: 3.27 h and 4.01 h and 2.21 h and 10.3 h | T1/2 [2, 5]: 3.20 h and 3.31 h and 2.04 h and 8.02 h | AUC(0-inf) [2, 6]: 2260 ng·h/mL | AUC(0-t) [2, 6]: 1840 ng·h/mL | half-life [2, 6]: 2.32 h | C0 ([2]; male, CD1, mouse, plasma, iv, 10 mg/kg, IV 10 mg/kg, Mean of 4 mice, read-out: C0): 4820 ng/mL | MRT inf [2, 6]: 2.1 h | Vd [2, 6]: 9.3 L/kg | AUC(0-inf) [2, 7]: 1980 ng·h/mL | AUC(0-t) [2, 7]: 1730 ng·h/mL | half-life [2, 7]: 1.63 h | C0 ([2]; male, CD1, mouse, plasma, iv, 10 mg/kg, IV 10 mg/kg, individual mouse, read-out: C0): 3720 ng/mL | MRT inf [2, 7]: 1.62 h | Vd [2, 7]: 8.18 L/kg | AUC(0-inf) [2, 8]: 429 ng·h/mL | AUC(0-t) [2, 8]: 316 ng·h/mL | Tmax [2, 8]: 0.25 h | bioavailability [2, 8]: 16.5% | half-life [2, 8]: 4.14 h | Cmax ([2]; male, CD1, mouse, plasma, po, 10 mg/kg, PO 10 mg/kg, Mean of 4 mice, read-out: Cmax): 222 ng/mL | MRT inf [2, 8]: 4.9 h | AUC(0-inf) [2, 9]: 383 ng·h/mL | AUC(0-t) [2, 9]: 314 ng·h/mL | Tmax [2, 9]: 0.25 h | bioavailability [2, 9]: 16.9% | IC50 (MiaPaCA-2): 530 nM | toxicity observed ([3]; 12.5 mg/kg, mouse): acute toxicity for CCL-106 (strong tremors and weight loss) | toxicity observed ([3]; 15.63 mg/kg dose at each of days 5, 6, and 7, mouse): seizure like symptoms but recovered more quickly (around 30 minutes) | toxicity observed ([3]; 31.25 mg/kg dose, mouse): stop moving after about 2 minutes and have seizure like symptoms | toxicity observed ([3]; 39.06 mg/kg dose, mouse): killed a mouse immediately | toxicity observed ([3]; 46.87 mg/kg dose, mouse): killed a mouse immediately | toxicity observed ([3]; 3.12, 6.25, and 10 mg/kg dose, mice): No toxicity was observed | tail vein toxicity ([3]; daily 31.25 mg/kg doses, mouse): displayed tail vein toxicity on day 2
